Legend:
Test in all cases: CTG-3D luminescence at 96 h relative to day-0 seeding control (ratio to day 0); higher = more growth / less cytotoxicity; PDxO 3D drug screen, 96 h, CTG-3D normalised to day-0 seeding control.
[1] = test system: HCI-008 (organoid from a HER2-enriched breast cancer xenograft)
[2] = test system: HCI-019 (organoid from a triple-negative breast cancer xenograft)
[3] = test system: HCI-005.E2 (organoid from a breast cancer xenograft with a HER2-positive history)
[4] = test system: HCI-017.E2 (organoid from an ER-positive breast cancer xenograft)

C[C@H](NC(=O)CCC(F)(F)F)C(=O)N[C@@H]1C(=O)N(CCO)c2ncccc2-c2ccccc21 [crenigacestat]
CTG-3D luminescence at 96 h
Conditions | 12.5 pM | 0.00025 µM | 0.005 µM | 0.1 µM | 1 µM | 10 µM | 100 µM | 625 fM
[1], days in culture: 228 | 1.8 | 1.66 | 1.56 | 1.47 | 1.73 | 1.7 | 1.65 | 1.9
[1], days in culture: 244 | 1.23 | 1.65 | 1.55 | 1.79 | 1.38 | 1.57 | 1.38 | 1.79
[2], days in culture: 110 | 1.5 | 1.45 | 1.75 | 2.18 | 1.25 | 2.5 | 2.44 | 2.28
[2], days in culture: 131 | 2.19 | 3.56 | 1.97 | 2.86 | 2.87 | 2.81 | 3.41 | 3.74
[2], days in culture: 152 | 3.73 | 3.39 | 2.6 | 2.64 | 1.96 | 2.12 | 2 | 2.48
[4], days in culture: 85 | 2.43 | 2.96 | 2.49 | 2.05 | 1.89 | 1.57 | 2.02 | 3.08

CTG-3D luminescence at 96 h
Conditions | 12.5 pM | 0.00025 µM | 0.005 µM | 0.1 µM | 1 µM | 10 µM | 100 µM | 625 fM
[3] | 1.59 | 1.76 | 1.84 | 1.57 | 1.33 | 1.42 | 1.19 | 1.47
[4] | 1.98 | 2.37 | 2.22 | 1.95 | 1.876 | 1.78 | 1.78 | 2.32

Reference: the supplement of paper PMC8882468
